According to US11040975B2, “Carbocyclic nucleoside reverse transcriptase inhibitors” (Merck Sharp & Dohme Corp., priority 2017, dated 2021):

Columns and labels:
HIV-1 (H9IIIB virus) = assay: Viking assay: antiviral potency in a multiple round HIV-1 infection assay (MT4-GFP cells); assay type: cell-based; conditions: Human immunodeficiency virus 1, MT4-GFP cells, 10% normal human serum; inhibition of reproductive ratio R0; read-out: Viking, IC50 (10% NHS)
Experimental: Assessing Antiviral Potency in a Multiple Round HIV-1 Infection Assay.
HIV-1 replication was monitored using MT4-gag-GFP clone D3 (hereafter designate MT4-GFP), which are MT-4 cells modified to harbor a GFP reporter gene, the expression of which is dependent on the HIV-1 expressed proteins tat and rev. Productive infection of an MT4-GFP cell with HIV-1 results in GFP expression approximately 24h post-infection.
MT4-GFP cells were maintained at 37° C./5% CO2/90% relative humidity in RPMI 1640 supplemented with 10% fetal bovine serum, 100 U/mL penicillin/streptomycin, and 400 μg/mL G418 to maintain the reporter gene. For infections, MT4-GFP cells were placed in the same medium lacking G418 and infected overnight with H9IIIB virus at an approximate multiplicity of infection of 0.01 in the same incubation conditions. Cells were then washed and re-suspended in either RPMI 1640 containing 10% or 50% normal human serum at 1.6×10^5 cells/mL. Compound plates were prepared by dispensing compounds dissolved in DMSO into wells of 384 well poly D lysine-coated plates ([…]) using an ECHO acoustic dispenser. Each compound was tested in a 10 point serial 3-fold dilution (typical final concentrations: 8.4 μM-0.43 nM). Controls included no inhibitor (DMSO only) and a combination of three antiviral agents (efavirenz, indinavir, and an integrase strand transfer inhibitor at final concentrations of 4 μM each). Cells were added (50 μL/well) to compound plates and the infected cells were maintained at 37° C./5% CO2/90% relative humidity.
Infected cells were quantified at two time points, ˜48h and ˜72h post-infection, by counting the number of green cells in each well using an Acumen eX3 scanner. The increase in the number of green cells over ˜24h period gives the reproductive ratio, R0, which is typically 5-15 and has been shown experimentally to be in logarithmic phase (data not shown). Inhibition of R0 is calculated for each well, and IC50s determined by non-linear 4-parameter curve fitting.

MT4-GFP cells = assay: CTG assay: cytotoxicity in CellTiter-Glo Luminescent Cell Viability Assay; assay type: cell-based; conditions: CC50, MT4-GFP cells, 10% normal human serum, 48h incubation
Experimental: Assessing Cytotoxicity in CellTiter-Glo Luminescent Cell Viability Assay (CTG).
MT4-GFP cells were seeded in RPMI 1640 supplemented with 10% fetal bovine serum, 100 U/mL penicillin/streptomycin overnight at 37° C./5% CO2/90% relative humidity. Cells were then washed and resuspended in RPMI 1640 containing 10% normal human serum at a density of 0.8×10^5 cells/mL. Compound plates were prepared by dispensing compounds dissolved in DMSO into wells of 384 well solid black plates (Corning 3571) using an ECHO acoustic dispenser (0.2 μl/well). Each compound was tested in a 10 point serial 3-fold dilution (final concentrations: 8.4 μM-0.43 nM). Controls included DMSO. Cells were added (50 μL/well) to compound plates and were maintained at 37° C./5% CO2/90% relative humidity. CTG reagent (Promega, G7573) was added to the cell plates after 48h incubation according to the manufacturer's description. Luminescence signals were recorded on EnVision plate reader (PerkinElmer). CC50s were determined by non-linear 4-parameter curve fitting. The resulting data is shown in Table 3 with the marketed HIV nucleoside reverse transcriptase inhibitor AZT (azidothymidine, zidovudine) included as a control.

Row | Compound | IC50 (HIV-1 (H9IIIB virus)) [µM] | CTG (MT4-GFP cells) [µM]
1 | C#C[C@]1(CO)C[C@@H](n2cnc3c(N)nc(F)nc32)C[C@@H]1O (racemic) [Example (+/−) 13, (1S,2S,4R)-4-(6-amino-2-fluoro-9H-purin-9-yl)-2-ethynyl-2-(hydroxymethyl)cyclopentan-1-ol and (1R,2R,4S)-4-(6-amino-2-fluoro-9H-purin-9-yl)-2-ethynyl-2-(hydroxymethyl)cyclopentan-1-ol] | 5.43 | > 42
2 | C#C[C@]1(CO)C[C@@H](n2cnc3c(Cl)nc(N)nc32)C[C@@H]1O (racemic) [Example (+/−) 14, (1S,2S,4R)-4-(2-amino-6-chloro-9H-purin-9-yl)-2-ethynyl-2-(hydroxymethyl)cyclopentan-1-ol and (1R,2R,4S)-4-(2-amino-6-chloro-9H-purin-9-yl)-2-ethynyl-2-(hydroxymethyl)cyclopentan-1-ol] | 5.64 | > 42
3 | C#C[C@]1(CO)C[C@@H](n2cnc3c(Cl)nc(Cl)nc32)C[C@@H]1O (racemic) [Example (+/−) 17, (1S,2S,4R)-4-(2,6-dichloro-9H-purin-9-yl)-2-ethynyl-2-(hydroxymethyl)cyclopentan-1-ol and (1R,2R,4S)-4-(2,6-dichloro-9H-purin-9-yl)-2-ethynyl-2-(hydroxymethyl)cyclopentan-1-ol] | 17.4 | 19.9
4 | C#C[C@]1(CO)C[C@@H](n2cnc3c(N)nc(Cl)nc32)C[C@@H]1O (racemic) [Example (+/−) 18, (1S,2S,4R)-4-(6-amino-2-chloro-9H-purin-9-yl)-2-ethynyl-2-(hydroxymethyl)cyclopentan-1-ol and (1R,2R,4S)-4-(6-amino-2-chloro-9H-purin-9-yl)-2-ethynyl-2-(hydroxymethyl)cyclopentan-1-ol] | 19 | > 42
5 | C#C[C@@]1(CO)C[C@H](n2cnc3c(N)nc(Cl)nc32)C[C@H]1O (single isomer, unassigned) [Example 18A, (1S,2S,4R)-4-(6-amino-2-chloro-9H-purin-9-yl)-2-ethynyl-2-(hydroxymethyl)cyclopentan-1-ol or (1R,2R,4S)-4-(6-amino-2-chloro-9H-purin-9-yl)-2-ethynyl-2-(hydroxymethyl)cyclopentan-1-ol] | 25.2 | > 42
6 | Cc1cn([C@H]2C[C@H](N=[N+]=[N-])[C@@H](CO)O2)c(=O)[nH]c1=O [AZT, 3′-azido-3′-deoxythymidine, reference compound] | 0.037 | >8.4
